SMILES strings stand for the structures. A value given as a limit tells only on which side of the number the result lay.

Assay [1] has as its system A549 lung carcinoma cells. In words: Cell proliferation assay A549 (CellTiter-Glo, 7 days). In kind it is cell-based. As to conditions: Homo sapiens, A549, 168 h, A549, 7 days, cell viability CellTiter-Glo 2.0. The method, then: (§1) HepG2 hepatoma cells (ATCC, HB-8065) were maintained in DMEM with high glucose (Lonza, 12-914F) supplemented with 10% fetal bovine serum (FBS; Biowest, S181B-500) and 2 mM L-glutamine (Biowest, X0551-100) at 37° C. and 5% CO2. A549 lung carcinoma cells (ATCC, CCL-185) were maintained in F-12K medium (ThermoFisher 21127030) supplemented with 10% FBS at 37° C. and 5% CO2. Exponentially growing HepG2 or A549 were plated in white, clear-bottom 96-well plates (Corning, 3903) at a cell density of 2000 (HepG2) or 350 (A549) cells per well in 199 μL of HepG2 medium. Next, 1 μL of a 5-fold 9-point dilution series of test compound in DMSO was added to the different wells. Cells were incubated at 37° C. 5% CO2 for 7 days. Cell viability was assessed on day 7 with the CellTiter-Glo 2.0 Cell Viability assay kit (Promega, G9243) to quantify the intracellular amounts of ATP: first, 100 μL of cell culture medium was removed from each well, next 100 μL of CellTiter-Glo® 2.0 Reagent was added and plates were shaken for 2 minutes on an orbital shaker. After 10 minutes stabilization at room temperature, read-out was performed on a ThermoFisher VarioSkan Lux plate reader. Counts were normalized to DMSO control (0% inhibition) and the cytotoxic control (100% inhibition) and EC50 values were determined in GraphPad Prism 8 using the [Agonist] vs. response—Variable slope (four parameters) function.
(§2) As shown by the data of Table 2, compounds of Formula (I) have activity in this assay. A value of ‘A’ in the table below indicates an EC50 of <20 nM, a value of ‘B’ indicates an EC50≥20 nM to <100 nM, a value of ‘C’ indicates an EC50 value of EC50≥100 nM to <1000 nM and a value of ‘D’ indicates an EC50≥1000 nM

The subject of a further assay is HepG2 hepatoma cells. In words: Cell proliferation assay HepG2 (CellTiter-Glo, 7 days). The assay is classed as cell-based. As to conditions: Homo sapiens, 168 h; HepG2, 7 days, cell viability CellTiter-Glo 2.0. As to the method: as §1, §2
The target in assay [2] is T1, PRMT5/MEP50 (Homo sapiens, UniProt O14744). In words: PRMT5/MEP50 enzyme inhibition assay, Assay 2 (384-well, MALDI mass spectrometry, SAM, histone H4 1-21 peptide). In kind it is biochemical. The settings on record: 1 μM SAM, 0.1 μM histone H4 1-21 peptide, 18-hour incubation at rt. The method, then:
Compounds were tested for inhibition of methyltransferase activity in 384-well plate assay format using mass spectrometry technology. In this enzyme inhibition assay, compounds were tested in a 11-dose IC50 mode with 3-serial dilution, in duplicate, starting at 1, 10, or 100 μM. Reactions were carried out at 1 μM SAM and 0.1 μM histone H4 1-21 peptide as substrates for methyl transfer. Following an 18-hour incubation at rt, the reaction was stopped with 0.5% formic acid. Products of the reaction were captured while unreacted substrates were washed away, prior to MALDI mass spectrometry detection and analysis. Percent enzyme activity was calculated based on no inhibitor DMSO control as 100% activity. EC50 values were determined in GraphPad Prism 8 using the [inhibitor] vs. response—Variable slope (four parameters) function.
(§3) Compounds of Formula (I) show activity in this assay. A value of ‘A’ in the table below indicates an IC50 of <1 nM, a value of ‘B’ indicates an IC50≥1 nM to ≤100 nM, and a value of ‘C’ indicates an IC50 value of >100 nM.

The target of assay [3] is T1, PRMT5/MEP50. In words: PRMT5/MEP50 enzyme inhibition assay, Assay 1 (radioisotope filter binding, 3H-SAM, histone H2A). The settings on record: 1 μM 3H-SAM, 5 μM histone H2A, 60 min at 30° C. In kind it is biochemical. As to the method: Compounds were tested for inhibition of methyltransferase activity in a radioisotope filter binding assay, similar to previously described in A selective inhibitor of PRMT5 with in vivo and in vitro potency in MCL models. Chan-Penebre et al., Nat Chem Biol. (2015) 11(6):432-7. In the standard PRMT5/MEP50 enzyme inhibition assay, compounds were tested in a 10-dose IC50 mode with 3- or 5-fold serial dilution, in singlet, starting at 1, 10, or 100 μM. Control compound, SAH (S-(5′-Adenosyl)-L-homocysteine), was tested in 10-dose IC50 mode with 3-fold serial dilution starting at 100 μM. Reactions were carried out at 1 μM 3H-SAM (PerkinElmer) and 5 μM histone H2A as substrates for methyl transfer. Following a 60 min incubation at 30° C., the reaction was stopped with 20% TCA. Each reaction was spotted on a filter plate (MultiScreen FB Filter plate, Millipore) and washed 5 times in PBS, after which scintillation fluid was added and signal was detected in a scintillation counter. Percent enzyme activity was calculated based on no inhibitor DMSO control as 100% activity. EC50 values were determined in GraphPad Prism 8 using the [inhibitor] vs. response—Variable slope (four parameters) function.
as §3

T1 sequence (O14744 whole entry): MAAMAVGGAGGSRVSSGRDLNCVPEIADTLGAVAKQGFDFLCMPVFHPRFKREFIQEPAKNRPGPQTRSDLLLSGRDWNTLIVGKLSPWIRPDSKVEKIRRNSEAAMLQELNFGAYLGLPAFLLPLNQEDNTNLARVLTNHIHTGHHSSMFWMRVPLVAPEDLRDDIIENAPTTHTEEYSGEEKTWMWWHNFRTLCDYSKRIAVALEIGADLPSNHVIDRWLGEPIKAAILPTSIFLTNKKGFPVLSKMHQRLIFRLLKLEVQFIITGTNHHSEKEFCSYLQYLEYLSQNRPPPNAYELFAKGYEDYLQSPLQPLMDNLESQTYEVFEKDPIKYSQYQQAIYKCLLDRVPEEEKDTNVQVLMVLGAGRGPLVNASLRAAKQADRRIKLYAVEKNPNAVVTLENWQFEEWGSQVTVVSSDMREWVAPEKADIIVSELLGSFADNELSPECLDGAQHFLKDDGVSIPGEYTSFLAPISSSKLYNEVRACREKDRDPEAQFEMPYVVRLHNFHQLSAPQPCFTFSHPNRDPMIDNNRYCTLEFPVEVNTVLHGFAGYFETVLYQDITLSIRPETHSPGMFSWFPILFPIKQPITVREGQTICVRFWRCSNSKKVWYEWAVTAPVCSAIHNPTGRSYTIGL
T1 sequence (Q9BQA1 whole entry partner): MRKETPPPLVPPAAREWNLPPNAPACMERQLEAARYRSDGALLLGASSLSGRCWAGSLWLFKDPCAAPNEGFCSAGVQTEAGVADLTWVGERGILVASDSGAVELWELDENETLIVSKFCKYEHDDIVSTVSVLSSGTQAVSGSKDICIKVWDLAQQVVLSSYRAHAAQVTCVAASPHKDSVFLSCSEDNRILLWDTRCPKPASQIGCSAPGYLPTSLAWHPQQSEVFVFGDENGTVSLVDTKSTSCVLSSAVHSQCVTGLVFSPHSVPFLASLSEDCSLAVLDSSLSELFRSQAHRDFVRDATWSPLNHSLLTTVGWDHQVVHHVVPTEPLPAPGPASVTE

As for `Nc1nc2cc(OC[C@@H]3[C@@H](O)[C@@H](O)[C@]4(n5ccc6c(N)ncnc65)C[C@@H]34)ccc2cc1Br` (racemic) [Compound 17, rac-(2S,3R,4R,5S)-4-[(2-amino-3-bromo-7-quinolyl)oxymethyl]-1-(4-aminopyrrolo[2,3-d]pyrimidin-7-yl)bicyclo[3.1.0]hexane-2,3-diol], the EC50 (in assay [1]; in the assay with HepG2 hepatoma cells) was at least 1000 nM throughout.
For `C[C@]1(CCc2ccc3cc(Br)c(N)nc3c2)C[C@@H](n2ccc3c(N)ncnc32)[C@H](O)[C@@H]1O` [Compound 1], the IC50 against PRMT5/MEP50 [2] and at PRMT5/MEP50 [3] was under 1 nM throughout.
For the molecule `Nc1nc2cc(CC[C@@]34C[C@@H]3[C@@H](n3ccc5c(N)ncnc53)[C@H](O)[C@@H]4O)ccc2cc1Br` [Compound 2], the 50% effective concentration (EC50) (in assay [1]; in the assay on HepG2 hepatoma cells) was under 20 nM throughout. In addition, the 50% inhibitory concentration (IC50) against PRMT5/MEP50 [2] and on PRMT5/MEP50 [3] was under 1 nM each time.
As to `C=C1[C@@H](n2ccc3c(N)ncnc32)[C@H](O)[C@H](O)[C@H]1CCc1ccc2cc(Br)c(Cl)nc2c1` [Compound 3], the concentration for a half-maximal effect (EC50) (in assay [1]; in the assay on HepG2 hepatoma cells) was 100 to 1000 nM in each case. In addition, the IC50 on PRMT5/MEP50 [2] and at PRMT5/MEP50 [3] was over 100 nM each time.
As to `C=C1[C@@H](n2ccc3c(N)ncnc32)[C@H](O)[C@H](O)[C@H]1CCc1ccc2cc(Br)c(N)nc2c1` [Compound 4], the EC50 (in assay [1]; in the assay with HepG2 hepatoma cells) was under 20 nM each time. For the same molecule, the IC50 against PRMT5/MEP50 [2] and at PRMT5/MEP50 [3] was under 1 nM each time.
On to `C[C@H]1[C@H](CCc2ccc3ccc(N)nc3c2)[C@@H](O)[C@@H](O)[C@@H]1n1ccc2c(N)ncnc21` [Compound 5], for which the 50% effective concentration (EC50) (in assay [1]; in the assay with HepG2 hepatoma cells) was 100 to 1000 nM throughout. Further, the concentration for half-maximal inhibition (IC50) on PRMT5/MEP50 [2] and on PRMT5/MEP50 [3] was under 1 nM throughout.
Turning to `Cc1cnc2cc(OC[C@@]34C[C@@H]3[C@@H](n3ccc5c(N)ncnc53)[C@H](O)[C@@H]4O)ccn12` [Compound 16], the 50% effective concentration (EC50) (in assay [1]; in the assay with HepG2 hepatoma cells) was at least 1000 nM in each case. The molecule further displayed an IC50 against PRMT5/MEP50 [2] of under 1 nM.
Take `C[C@]1(CCc2ccc3cc(Cl)c(N)nc3c2)C[C@@H](n2ccc3c(N)ncnc32)[C@H](O)[C@@H]1O` [Compound 18]: the EC50 (in assay [1]; in the assay on HepG2 hepatoma cells) was under 20 nM each time. Also, the IC50 against PRMT5/MEP50 [2] was under 1 nM.
As to `C[C@]1(CCc2ccc3cc(C(F)F)c(N)nc3c2)C[C@@H](n2ccc3c(N)ncnc32)[C@H](O)[C@@H]1O` [Compound 23], the EC50 (in assay [1]; with HepG2 hepatoma cells) was under 20 nM in each case. The IC50 against PRMT5/MEP50 [2] was under 1 nM.
As to `C[C@]1(CCc2ccc3ccc(N)nc3n2)C[C@@H](n2ccc3c(N)ncnc32)[C@H](O)[C@@H]1O` [Compound 24], the EC50 (in assay [1]; in the assay with HepG2 hepatoma cells) was 20 to 100 nM in each case. Moreover, the half-inhibitory concentration (IC50) against PRMT5/MEP50 [2] was under 1 nM.
On to `CC(C)C(=O)O[C@H]1[C@H](n2ccc3c(N)ncnc32)C[C@](C)(CCc2ccc3nc(N)ccc3c2)[C@H]1OC(=O)C(C)C` [Compound 26-A], for which the EC50 (in assay [1]; in the assay with HepG2 hepatoma cells) was at least 1000 nM throughout. This molecule registered a concentration for half-maximal inhibition (IC50) on PRMT5/MEP50 [2] of over 100 nM.
Consider `C[C@]1(CCc2ccc3cc(C#N)c(N)nc3c2)C[C@@H](n2ccc3c(N)ncnc32)[C@H](O)[C@@H]1O` [Compound 27], for which the EC50 (in assay [1]; in the assay with HepG2 hepatoma cells) was 20 to 100 nM each time. On PRMT5/MEP50 [2], the IC50 is under 1 nM.
With `C[C@]1(CCc2ccc3cc(Cl)c(N)nc3c2)C[C@@H](n2ccc3c(N)ncnc32)[C@H](O)[C@]1(C)O` [Compound 28], the 50% effective concentration (EC50) in assay [1] was in the range of 100 to 1000 nM; in the assay with HepG2 hepatoma cells, 20 to 100 nM. For the same molecule, the IC50 against PRMT5/MEP50 [2] is under 1 nM.
Take `Cn1c(N)nc2cc(CC[C@@]3(C)C[C@@H](n4ccc5c(N)ncnc54)[C@H](O)[C@@H]3O)ccc2c1=O` [Compound 29]: the EC50 in assay [1] is 20 to 100 nM; with HepG2 hepatoma cells it was under 20 nM. Besides, at PRMT5/MEP50 [2], the IC50 is under 1 nM.
`C[C@]1(CCc2cc(F)c3cc(Cl)c(N)nc3c2)C[C@@H](n2ccc3c(N)ncc(F)c32)[C@H](O)[C@@H]1O` [Compound 34, (1S,2R,3S,5R)-3-[2-(2-amino-3-chloro-5-fluoro-7-quinolyl)ethyl]-5-(4-amino-7-fluoro-pyrrolo[3,2-c]pyridin-1-yl)-3-methyl-cyclopentane-1,2-diol] displayed a concentration for half-maximal inhibition (IC50) against PRMT5/MEP50 [2] of under 1 nM.
In the case of `Nc1ccc2ccc(CC[C@@]3(F)C[C@@H](n4ccc5c(N)ncnc54)[C@H](O)[C@@H]3O)cc2n1` [Compound 35, (1S,2S,3R,5R)-5-(4-amino-7H-pyrrolo[2,3-d]pyrimidin-7-yl)-3-(2-(2-aminoquinolin-7-yl)ethyl)-3-fluorocyclopentane-1,2-diol], the IC50 against PRMT5/MEP50 [2] is under 1 nM.
As to `C[C@]1(CCc2cc(F)c3ccc(N)nc3c2)C[C@@H](n2ccc3c(N)ncc(F)c32)[C@H](O)[C@@H]1O` [Compound 42, (1S,2R,3S,5R)-3-(2-(2-amino-5-fluoroquinolin-7-yl)ethyl)-5-(4-amino-7-fluoro-1H-pyrrolo[3,2-c]pyridin-1-yl)-3-methylcyclopentane-1,2-diol], the IC50 against PRMT5/MEP50 [2] is under 1 nM.
Consider `C[C@]1(CCc2ccc3cc(Br)c(N)nc3c2)C[C@@H](n2ccc3c(N)ncc(F)c32)[C@H](O)[C@@H]1O` [Compound 50], for which the EC50 (in assay [1]; in the assay on HepG2 hepatoma cells) was under 20 nM throughout. This molecule displayed a concentration for half-maximal inhibition (IC50) at PRMT5/MEP50 [2] of under 1 nM.
On to `C[C@]1(CCc2cc(F)c3cc(Cl)c(N)nc3c2)C[C@@H](n2ccc3c(N)nc(Cl)nc32)[C@H](O)[C@@H]1O` [Compound 53], for which the EC50 (in assay [1]; in the assay on HepG2 hepatoma cells) was under 20 nM throughout. This molecule returned an IC50 on PRMT5/MEP50 [2] of under 1 nM.
Consider `CCCCCOC(=O)Nc1ccc2ccc(CC[C@@]3(C)C[C@@H](c4ccc5c(N)ncnn45)[C@H](O)[C@@H]3O)cc2n1` [Compound 55], for which the EC50 (in assay [1]; in the assay on HepG2 hepatoma cells) was 20 to 100 nM in each case. This molecule also yielded an IC50 at PRMT5/MEP50 [2] of over 100 nM.
Consider `C[C@]1(CCc2cc(F)c3cc(Cl)c(N)nc3c2)C[C@@H](c2ccc3c(N)ncnn23)[C@H](O)[C@@H]1O` [Compound 57], for which the EC50 (in assay [1]; in the assay on HepG2 hepatoma cells) was under 20 nM each time.
As for `COC[C@]1(CCc2ccc3cc(Br)c(N)nc3c2)C[C@@H](n2ccc3c(N)ncnc32)[C@H](O)[C@@H]1O` [Compound 58], the half-maximal effective concentration (EC50) (in assay [1]; in the assay on HepG2 hepatoma cells) was under 20 nM throughout.
In the case of `C[C@]1(CCc2ccc3cc(Br)c(N)nc3c2)C[C@@H](c2ccc3c(N)ncnn23)[C@H](O)[C@@H]1O` [Compound 59], the 50% effective concentration (EC50) (in assay [1]; with HepG2 hepatoma cells) was under 20 nM in each case. Besides, the half-maximal inhibitory concentration (IC50) at PRMT5/MEP50 [2] was under 1 nM.
For the molecule `C=C[C@]1(CCc2ccc3cc(Br)c(N)nc3c2)C[C@@H](n2ccc3c(N)ncnc32)[C@H](O)[C@@H]1O` [Compound 62], the 50% effective concentration (EC50) in assay [1] is under 20 nM.
In assay [1], `C#C[C@]1(CCc2ccc3cc(Br)c(N)nc3c2)C[C@@H](n2ccc3c(N)ncnc32)[C@H](O)[C@@H]1O` [Compound 63] yielded an EC50 of under 20 nM.
Still for that read-out and setting: the result for `COC[C@]1(CCc2cc(F)c3cc(Cl)c(N)nc3c2)C[C@@H](c2ccc3c(N)ncnn23)[C@H](O)[C@@H]1O` [Compound 64] reads under 20 nM.
